Consider one compound from PMC5218480 (PLoS ONE, 2017).

The structures appear in SMILES notation.

For this test, the system named is MV-4-11 cells. In words: Gene expression microarray analysis (Affymetrix PrimeView) and GSEA. The test is classed as cell-based, human. Details: RFU PODN (11730768_x_at) / Fold change /veh PODN (11730768_x_at) / RFU LINC00158 (11744669_a_at) / Fold change /veh LINC00158 (11744669_a_at) / RFU DUSP10 (11751237_a_at) / Fold change /veh DUSP10 (11751237_a_at) / RFU ID3 (11757404_x_at) / Fold change /veh ID3 (11757404_x_at) / RFU PLEKHG5 (11737974_s_at) / Fold change /veh PLEKHG5 (11737974_s_at) / RFU LRRC4B (11730491_at) / Fold change /veh LRRC4B (11730491_at) / RFU GIMAP4 (11747438_a_at) / Fold change /veh GIMAP4 (11747438_a_at) / RFU KRT8 (11758183_x_at) / Fold change /veh KRT8 (11758183_x_at) / RFU CNN1 (11734310_a_at) / Fold change /veh CNN1 (11734310_a_at) / RFU VPS37D (11726825_at) / Fold change /veh VPS37D (11726825_at) / RFU C10orf10 (11716522_x_at) / Fold change /veh C10orf10 (11716522_x_at) / RFU KIR2DL2 /// KIR2DL4 /// KIR2DL5A /// KIR2DL5B /// KIR2DS1 /// KIR2DS2 /// KIR2DS3 /// KIR2DS4 /// KIR3DL3 /// KIR3DL3 /// KIR3DS1 (11738374_at) / Fold change /veh KIR2DL2 /// KIR2DL4 /// KIR2DL5A /// KIR2DL5B /// KIR2DS1 /// KIR2DS2 /// KIR2DS3 /// KIR2DS4 /// KIR3DL3 /// KIR3DL3 /// KIR3DS1 (11738374_at) / RFU C1QL1 (11718748_at) / Fold change /veh C1QL1 (11718748_at) / RFU TMPRSS4 (11747572_a_at) / Fold change /veh TMPRSS4 (11747572_a_at) / RFU HAMP (11756126_x_at) / Fold change /veh HAMP (11756126_x_at) / RFU RNFT2 (11725882_a_at) / Fold change /veh RNFT2 (11725882_a_at) / RFU NR4A2 (11747474_a_at) / Fold change /veh NR4A2 (11747474_a_at) / RFU ABCC12 (11746883_a_at) / Fold change /veh ABCC12 (11746883_a_at) / RFU TMEM136 (11760407_x_at) / Fold change /veh TMEM136 (11760407_x_at) / RFU CLDN22 /// WWC2 (11732394_at) / Fold change /veh CLDN22 /// WWC2 (11732394_at) / RFU HLA-DPB1 (11760878_x_at) / Fold change /veh HLA-DPB1 (11760878_x_at) / RFU SPINT1 (11716480_a_at) / Fold change /veh SPINT1 (11716480_a_at) / RFU GAP43 (11754022_s_at) / Fold change /veh GAP43 (11754022_s_at) / RFU A4GNT (11735810_at) / Fold change /veh A4GNT (11735810_at) / RFU PRB3 (11715151_x_at) / Fold change /veh PRB3 (11715151_x_at) / RFU TUBB4B (11761932_at) / Fold change /veh TUBB4B (11761932_at) / RFU CAPN14 (11732068_a_at) / Fold change /veh CAPN14 (11732068_a_at) / RFU TMCC2 (11721928_a_at) / Fold change /veh TMCC2 (11721928_a_at) / RFU IRGQ (11745062_a_at) / Fold change /veh IRGQ (11745062_a_at) / RFU FAM174B (11720279_a_at) / Fold change /veh FAM174B (11720279_a_at) / RFU TMPRSS4 (11748680_a_at) / Fold change /veh TMPRSS4 (11748680_a_at) / RFU FAM212B (11763350_a_at) / Fold change /veh FAM212B (11763350_a_at) / RFU PLEKHG5 (11743358_a_at) / Fold change /veh PLEKHG5 (11743358_a_at) / RFU ZSCAN30 (11745921_a_at) / Fold change /veh ZSCAN30 (11745921_a_at) / RFU CMKLR1 (11741424_a_at) / Fold change /veh CMKLR1 (11741424_a_at) / RFU LOC101060620 /// MAPK8IP1 (11723275_at) / Fold change /veh LOC101060620 /// MAPK8IP1 (11723275_at) / RFU SPTSSB (11747773_x_at) / Fold change /veh SPTSSB (11747773_x_at) / RFU PRSS12 (11739890_at) / Fold change /veh PRSS12 (11739890_at) / RFU BIN1 (11741810_x_at) / Fold change /veh BIN1 (11741810_x_at) / RFU WNT11 (11732464_a_at) / Fold change /veh WNT11 (11732464_a_at) / RFU C10orf10 (11716521_a_at) / Fold change /veh C10orf10 (11716521_a_at) / RFU C5orf56 (11738089_at) / Fold change /veh C5orf56 (11738089_at) / RFU CYB561 (11721691_x_at) / Fold change /veh CYB561 (11721691_x_at) / RFU ANKRD19P (11752326_a_at) / Fold change /veh ANKRD19P (11752326_a_at) / RFU OR2T12 /// OR2T33 /// OR2T8 (11738714_s_at) / Fold change /veh OR2T12 /// OR2T33 /// OR2T8 (11738714_s_at) / RFU VCAN (11748164_a_at) / Fold change /veh VCAN (11748164_a_at) / RFU JSRP1 (11732532_at) / Fold change /veh JSRP1 (11732532_at) / RFU KRTAP10-11 (11738290_x_at) / Fold change /veh KRTAP10-11 (11738290_x_at) / RFU MYO3A (11730013_a_at) / Fold change /veh MYO3A (11730013_a_at) / RFU EBF3 (11725865_a_at) / Fold change /veh EBF3 (11725865_a_at) / RFU CAMK2N1 (11719241_x_at) / Fold change /veh CAMK2N1 (11719241_x_at) / RFU C5orf56 (11738088_a_at) / Fold change /veh C5orf56 (11738088_a_at) / RFU OLFML3 (11715873_a_at) / Fold change /veh OLFML3 (11715873_a_at) / RFU LOC100653217 /// NTM (11731650_a_at) / Fold change /veh LOC100653217 /// NTM (11731650_a_at) / RFU MAPK11 (11762145_a_at) / Fold change /veh MAPK11 (11762145_a_at) / RFU FIZ1 (11724087_x_at) / Fold change /veh FIZ1 (11724087_x_at) / RFU OASL (11726364_x_at) / Fold change /veh OASL (11726364_x_at) / RFU SOX15 (11748057_x_at) / Fold change /veh SOX15 (11748057_x_at) / RFU CD79A (11719716_a_at) / Fold change /veh CD79A (11719716_a_at) / RFU HIST1H1D (11736915_at) / Fold change /veh HIST1H1D (11736915_at) / RFU CASKIN2 (11723855_a_at) / Fold change /veh CASKIN2 (11723855_a_at) / RFU LOC730098 (11760151_x_at) / Fold change /veh LOC730098 (11760151_x_at) / RFU OR4N2 (11742367_at) / Fold change /veh OR4N2 (11742367_at) / RFU PRRT2 (11749266_a_at) / Fold change /veh PRRT2 (11749266_a_at) / RFU SNX32 (11753110_a_at) / Fold change /veh SNX32 (11753110_a_at) / RFU CDHR5 (11726645_a_at) / Fold change /veh CDHR5 (11726645_a_at) / RFU RCAN1 (11760418_a_at) / Fold change /veh RCAN1 (11760418_a_at) / RFU FAM167A (11723789_a_at) / Fold change /veh FAM167A (11723789_a_at) / RFU FAM26E (11764081_at) / Fold change /veh FAM26E (11764081_at) / RFU ISYNA1 (11749810_s_at) / Fold change /veh ISYNA1 (11749810_s_at) / RFU ACY1 (11761880_at) / Fold change /veh ACY1 (11761880_at) / RFU 11764098_at / Fold change /veh 11764098_at / RFU SAMD14 (11745864_x_at) / Fold change /veh SAMD14 (11745864_x_at) / RFU NPB (11741838_a_at) / Fold change /veh NPB (11741838_a_at) / RFU TMPRSS6 (11731388_a_at) / Fold change /veh TMPRSS6 (11731388_a_at) / RFU KRTAP10-2 (11738614_at) / Fold change /veh KRTAP10-2 (11738614_at) / RFU ARHGAP8 /// PRR5-ARHGAP8 (11727945_x_at) / Fold change /veh ARHGAP8 /// PRR5-ARHGAP8 (11727945_x_at) / RFU KRTAP5-7 /// NADSYN1 (11734609_at) / Fold change /veh KRTAP5-7 /// NADSYN1 (11734609_at) / RFU RASL12 (11751679_a_at) / Fold change /veh RASL12 (11751679_a_at) / RFU CDKN2B (11736163_a_at) / Fold change /veh CDKN2B (11736163_a_at) / RFU PRF1 (11729649_at) / Fold change /veh PRF1 (11729649_at) / RFU, ZNF638 /// ZNF638-IT1 / Fold change vs veh, ZNF638 /// ZNF638-IT1 / RFU, PANK3 / Fold change vs veh, PANK3 / RFU, SH3YL1 / Fold change vs veh, SH3YL1 / RFU, ZEB2 / Fold change vs veh, ZEB2 / RFU, NRIP1 / Fold change vs veh, NRIP1 / RFU, PTTG1IP / Fold change vs veh, PTTG1IP / RFU, CAPN2 / Fold change vs veh, CAPN2 / RFU, MED14 / Fold change vs veh, MED14 / RFU, SNORA58 / Fold change vs veh, SNORA58 / RFU, C1orf63 / Fold change vs veh, C1orf63 / RFU, LRRFIP1 / Fold change vs veh, LRRFIP1 / RFU, NDUFAF7 / Fold change vs veh, NDUFAF7 / RFU, SLC12A2 / Fold change vs veh, SLC12A2 / RFU, IBTK / Fold change vs veh, IBTK / RFU, ESF1 / Fold change vs veh, ESF1 / Fold change vs veh, TMEM50B / RFU, TAOK1 / Fold change vs veh, TAOK1 / RFU, ACBD3 / Fold change vs veh, ACBD3 / RFU, TMA16 / Fold change vs veh, TMA16 / RFU, RWDD3 / Fold change vs veh, RWDD3 / RFU, BCAT1 / Fold change vs veh, BCAT1 / RFU, EDEM3 / Fold change vs veh, EDEM3 / RFU, TMEM33 / Fold change vs veh, TMEM33 / RFU, WDR75 / Fold change vs veh, WDR75 / RFU, AHCTF1 / Fold change vs veh, AHCTF1 / RFU, TFRC / Fold change vs veh, TFRC / RFU, ZDHHC17 / Fold change vs veh, ZDHHC17 / RFU, NOM1 / Fold change vs veh, NOM1 / RFU, ARL8B / Fold change vs veh, ARL8B / RFU, ZBTB11 / Fold change vs veh, ZBTB11 / RFU, TAMM41 / Fold change vs veh, TAMM41 / RFU, KIAA1704 /// LOC100996395 / Fold change vs veh, KIAA1704 /// LOC100996395 / RFU, ING1 / Fold change vs veh, ING1 / RFU, TRMT61B / Fold change vs veh, TRMT61B / RFU, FUBP3 / Fold change vs veh, FUBP3 / RFU, TP53 / Fold change vs veh, TP53 / RFU, TNKS2 / Fold change vs veh, TNKS2 / RFU, ZFP14 / Fold change vs veh, ZFP14 / RFU, ACTR2 / Fold change vs veh, ACTR2 / RFU, PPP3R1 / Fold change vs veh, PPP3R1 / RFU, PIK3R1 / Fold change vs veh, PIK3R1 / RFU, HNRNPA1 / Fold change vs veh, HNRNPA1 / RFU, RNF170 / Fold change vs veh, RNF170 / RFU, ZNF28 / Fold change vs veh, ZNF28 / RFU, RNGTT / Fold change vs veh, RNGTT / RFU, OGT / Fold change vs veh, OGT / RFU, BRD1 / Fold change vs veh, BRD1 / RFU, MARS / Fold change vs veh, MARS / RFU, ZNF655 / Fold change vs veh, ZNF655 / RFU, FAHD1 / Fold change vs veh, FAHD1 / RFU, BDP1 / Fold change vs veh, BDP1 / RFU, LRRCC1 / Fold change vs veh, LRRCC1 / RFU, ARID1A / Fold change vs veh, ARID1A / RFU, ZNF146 / Fold change vs veh, ZNF146 / RFU, ZNF330 / Fold change vs veh, ZNF330 / RFU, GPN3 / Fold change vs veh, GPN3 / RFU, C9orf123 / Fold change vs veh, C9orf123 / RFU, N4BP2L2 / Fold change vs veh, N4BP2L2 / RFU, ARFIP1 / Fold change vs veh, ARFIP1 / RFU, FAM179B / Fold change vs veh, FAM179B / RFU, BCL10 / Fold change vs veh, BCL10 / RFU, UHRF1BP1L / Fold change vs veh, UHRF1BP1L / RFU, BET1 / Fold change vs veh, BET1 / RFU, CNOT2 / Fold change vs veh, CNOT2 / RFU, ZNF268 / Fold change vs veh, ZNF268 / Fold change vs veh, ZNF507 / RFU, DGCR2 / Fold change vs veh, DGCR2 / RFU, WDSUB1 / Fold change vs veh, WDSUB1 / Fold change vs veh, HSP90B1 /// MIR3652 / RFU, ADSS / Fold change vs veh, ADSS / RFU, GK / Fold change vs veh, GK / RFU, ZNF148 / Fold change vs veh, ZNF148 / RFU, TAF9 / Fold change vs veh, TAF9 / RFU, SLC1A5 / Fold change vs veh, SLC1A5 / RFU, SLMO2 / Fold change vs veh, SLMO2 / RFU, ABCC4 / Fold change vs veh, ABCC4 / RFU, LOC101060439 /// RAP1B / Fold change vs veh, LOC101060439 /// RAP1B / RFU, RFX7 / Fold change vs veh, RFX7 / RFU, GTPBP10 / Fold change vs veh, GTPBP10 / RFU, CNEP1R1 / Fold change vs veh, CNEP1R1 / RFU, BIVM-ERCC5 /// ERCC5 / Fold change vs veh, BIVM-ERCC5 /// ERCC5 / RFU, ILF3 / Fold change vs veh, ILF3 / RFU 11762660_at / Fold change /veh 11762660_at / RFU VCAN (11757783_s_at) / Fold change /veh VCAN (11757783_s_at) / RFU DDX43 (11728927_at) / Fold change /veh DDX43 (11728927_at) / RFU KRT8 (11758188_x_at) / Fold change /veh KRT8 (11758188_x_at) / RFU NKD1 (11759106_at) / Fold change /veh NKD1 (11759106_at) / RFU SRD5A1 (11742802_a_at) / Fold change /veh SRD5A1 (11742802_a_at) / RFU TPSAB1 /// TPSB2 (11721975_s_at) / Fold change /veh TPSAB1 /// TPSB2 (11721975_s_at) / RFU GSTM3 (11746129_a_at) / Fold change /veh GSTM3 (11746129_a_at) / RFU IL23R (11737362_x_at) / Fold change /veh IL23R (11737362_x_at) / RFU TMEM51 (11727254_a_at) / Fold change /veh TMEM51 (11727254_a_at) / RFU PIWIL2 (11732686_x_at) / Fold change /veh PIWIL2 (11732686_x_at) / RFU ORM1 (11744905_x_at) / Fold change /veh ORM1 (11744905_x_at) / RFU CCDC152 (11743942_at) / Fold change /veh CCDC152 (11743942_at) / RFU ECM1 (11717891_a_at) / Fold change /veh ECM1 (11717891_a_at) / RFU IL23R (11748794_a_at) / Fold change /veh IL23R (11748794_a_at) / RFU TNFAIP8L3 (11732012_x_at) / Fold change /veh TNFAIP8L3 (11732012_x_at) / RFU MBOAT4 (11741988_at) / Fold change /veh MBOAT4 (11741988_at) / RFU 11764193_at / Fold change /veh 11764193_at / RFU TMEM53 (11763286_at) / Fold change /veh TMEM53 (11763286_at) / RFU MAGEB2 (11727129_at) / Fold change /veh MAGEB2 (11727129_at) / RFU TMEM200A (11744735_a_at) / Fold change /veh TMEM200A (11744735_a_at) / RFU CCDC152 (11751479_a_at) / Fold change /veh CCDC152 (11751479_a_at) / RFU FAM211A (11726209_a_at) / Fold change /veh FAM211A (11726209_a_at) / RFU RGS16 (11746705_a_at) / Fold change /veh RGS16 (11746705_a_at) / RFU VCAN (11755009_s_at) / Fold change /veh VCAN (11755009_s_at) / RFU RHOB (11743442_s_at) / Fold change /veh RHOB (11743442_s_at) / RFU RGS16 (11720943_a_at) / Fold change /veh RGS16 (11720943_a_at) / RFU RGS16 (11720944_at) / Fold change /veh RGS16 (11720944_at) / RFU, VPS4B / Fold change vs veh, VPS4B / RFU, CREB1 / Fold change vs veh, CREB1 / RFU, DNAJC13 / Fold change vs veh, DNAJC13 / RFU, GNAQ / Fold change vs veh, GNAQ / RFU, CDK5R1 / Fold change vs veh, CDK5R1 / RFU, ZRANB3 / Fold change vs veh, ZRANB3 / RFU, CUL4A / Fold change vs veh, CUL4A / RFU, CCNY / Fold change vs veh, CCNY / RFU, UFL1 / Fold change vs veh, UFL1 / RFU, COG3 / Fold change vs veh, COG3 / RFU, DIAPH2 / Fold change vs veh, DIAPH2 / RFU, SKA2 / Fold change vs veh, SKA2 / RFU, AFF3 / Fold change vs veh, AFF3 / RFU, LMF1 / Fold change vs veh, LMF1 / RFU, IPO11 / Fold change vs veh, IPO11 / RFU, DFFB / Fold change vs veh, DFFB / RFU, FOXP1 / Fold change vs veh, FOXP1 / RFU, CARD8 / Fold change vs veh, CARD8 / RFU, STRN3 / Fold change vs veh, STRN3 / RFU, ADK / Fold change vs veh, ADK / RFU, RASSF2 / Fold change vs veh, RASSF2 / RFU, WIPF1 / Fold change vs veh, WIPF1 / RFU, LARP1B / Fold change vs veh, LARP1B / RFU, RASA1 / Fold change vs veh, RASA1 / RFU, RB1 / Fold change vs veh, RB1 / RFU, PPFIA1 / Fold change vs veh, PPFIA1 / RFU, MAT2A / Fold change vs veh, MAT2A / RFU, CCT5 / Fold change vs veh, CCT5 / RFU, WDR92 / Fold change vs veh, WDR92 / RFU, CUX1 / Fold change vs veh, CUX1 / RFU, TTC7A / Fold change vs veh, TTC7A / RFU, TMEM135 / Fold change vs veh, TMEM135 / RFU, DEPTOR / Fold change vs veh, DEPTOR / RFU, CPM / Fold change vs veh, CPM / RFU, DNAJB6 / Fold change vs veh, DNAJB6 / RFU, CACNA2D3 / Fold change vs veh, CACNA2D3 / RFU, DTX4 / Fold change vs veh, DTX4 / RFU, TFCP2 / Fold change vs veh, TFCP2 / RFU, GMCL1 /// GMCL1P1 / Fold change vs veh, GMCL1 /// GMCL1P1 / RFU, AEBP2 / Fold change vs veh, AEBP2 / RFU, SNHG1 /// SNORD22 /// SNORD25 /// SNORD26 /// SNORD27 /// SNORD28 /// SNORD29 /// SNORD31 / Fold change vs veh, SNHG1 /// SNORD22 /// SNORD25 /// SNORD26 /// SNORD27 /// SNORD28 /// SNORD29 /// SNORD31 / Fold change (Aza/veh), C12orf56 (ProbeSet 11735607_a_at) / Fold change (ACY-1035/veh), C12orf56 (ProbeSet 11735607_a_at) / Fold change (Aza/veh), FGFR1OP (ProbeSet 11751329_s_at) / Fold change (ACY-1035/veh), FGFR1OP (ProbeSet 11751329_s_at) / Fold change (Aza/veh), VPS36 (ProbeSet 11739960_a_at) / Fold change (ACY-1035/veh), VPS36 (ProbeSet 11739960_a_at) / RFU SYPL1 (11715823_x_at) / Fold change /veh SYPL1 (11715823_x_at) / RFU IGFBP7 (11715501_s_at) / Fold change /veh IGFBP7 (11715501_s_at) / RFU REEP3 (11722064_at) / Fold change /veh REEP3 (11722064_at) / RFU IGLL1 (11728026_x_at) / Fold change /veh IGLL1 (11728026_x_at): dose or concentration left out as unconfirmed. Particulars: MV-4-11 cells, 48 hours.

Take `Nc1ccc(-c2cccs2)cc1NC(=O)c1ccc2c(c1)cc(C1CC1)n2CCN1CCOCC1` [ACY-1035]: the “RFU TMPRSS4 (11747572_a_at)” value is given as 57.40 RFU.
